Experiment: FIH study: single doses and seven-day courses of Compound A in healthy participants (safety, pharmacokinetics)
Format: in vivo, human
[1] = single dose 100 mg, FIH study, mean

[2H]C([2H])([2H])CC(=O)c1cnc(NC(=O)C2CC2)cc1Nc1cccc(-c2ncn(C([2H])([2H])[2H])n2)c1OC [Compound A, N-(4-((2-Methoxy-3-(1-(methyl-d3)-1H-1,2,4-triazol-3-yl)phenyl)amino)-5-(propanoyl-3,3,3-d3)pyridin-2-yl)cyclopropanecarboxamide]
AUC (human, in vivo, oral, seven-day course, 40 mg q12h, read-out: mean AUC from time 0 to 12 hours at steady state [AUCo-12,ss]): 3620 ng·h/mL | Cmax (human, in vivo, oral, single dose 100 mg, FIH study, highest individual value): 1160 ng/mL | AUC(0-inf) (human, in vivo, oral, single dose 100 mg, FIH study, highest individual value, read-out: AUC0-inf highest value): 13700 ng·h/mL | mean Cmax at steady state [Cmax,ss] (seven-day course, 40 mg q12h): 433 ng/mL | tolerability of seven-day courses (seven-day courses of up to 40 mg q12h): well tolerated | AUC0-inf averaged [1]: 11,286 ng*h/mL | Cmax averaged [1]: 949 ng/mL | safety of single doses (single doses of up to 100 mg): without clinically significant safety concerns

From patent US20250205211A1, “TYK2 INHIBITORS AND USES THEREOF” (Alumis Inc., priority 2022, published 2025)
